“Also recorded” adds a separate entry of the source. Like-named read-outs stand apart in the source and are kept apart here.
Experiments:
human serotonin 5-HT7bR = human serotonin 5-HT7bR (Homo sapiens, UniProt P34969); assay: Radioligand binding, [3H]-5-CT displacement
human 5-HT7 receptor = human 5-HT7 receptor (Homo sapiens, UniProt P34969); assay: Functional assay, cAMP production (TR-FRET) in HEK293 cells overexpressing 5-HT7R; format: cell-based; conditions: for EC50: hydrochloride salts
[1] = Metabolic stability in human liver microsomes; format: in vitro ADME; conditions: human, read-out: Clint, metabolic clearance
Procedure: The in vitro evaluation of metabolic stability was performed by using human liver microsomes
(HLMs) (Sigma-Aldrich, St. Louis, MO, USA). The reaction mixtures consisted of 50 μM of tested
compounds with microsomes (1 mg/ml) in 10 mM tris-HCl buffer.
preincubation, the 50 µL of NADPH Regeneration System (Promega, Madison, WI, USA) was
added to initiate the reaction. The reactions were terminated by the addition of the cold methanol
The mixtures were centrifuged
The course of reaction was followed by using the
analyte/IS peak height ratio values.
Mass spectra were recorded on a UPLC-MS/MS system consisted of a Waters ACQUITY® UPLC® (Waters Corporation, Milford, MA, USA) coupled to a Waters TQD mass spectrometer
(electrospray ionization mode ESI-tandem quadrupole). Chromatographic separations were carried
particle size, equipped with Acquity UPLC BEH C18 VanGuard pre-column; 2.1 × 5 mm, and
The column was maintained at 40 °C, and eluted under gradient conditions
acid (0.1%, v/v); eluent B: acetonitrile/formic acid (0.1%, v/v). Chromatograms were made using
sampling rate 20 points/s. MS detection settings of Waters TQD mass spectrometer were as
600 L h−1, cone gas flow 100 L h−1, capillary potential 3.00 kV, cone potential 40 V. Nitrogen was
used for both nebulizing and drying gas. The data were obtained in a scan mode ranging from 50 to
2000 m/z in time 1.0 s intervals. Data acquisition software was MassLynx V 4.1 (Waters). The

5-HT1B = biological target: T1, 5-HT1B (Homo sapiens, UniProt P28222); assay: Eurofins Cerep binding screen 5-HT1B; conditions: 10^−6 M; read-out: % Inhibition of control binding 5-HT1B
T1 construct: Eurofins Cerep (contract screen)

5-HT2B = biological target: T2, 5-HT2B (Homo sapiens, UniProt P41595); assay: Eurofins Cerep binding screen 5-HT2B; conditions: read-out: % Inhibition of control binding 5-HT2B
T2 construct: Eurofins Cerep (contract screen)

5-HT5A = biological target: T3, 5-HT5A (Homo sapiens, UniProt P47898); assay: Eurofins Cerep binding screen 5-HT5A; conditions: 10^−6 M; read-out: % Inhibition of control binding 5-HT5A
T3 construct: Eurofins Cerep (contract screen)

HEK-293 cells = assay: MTS cytotoxicity assay HEK-293; format: cell-based, human; conditions: 72 h incubation, 0.1–100 μM
Procedure: (§1) The cell line was cultured in Dulbecco’s Modified Eagle’s Medium DMEM (Gibco) with 10% fetal bovine
(§2) The cells were cultured in Modified Eagle’s Medium
(§3) MEM with 100 mg/ml streptomycin and 100 U/ml penicillin, 1%, Non Essential Amino Acids (NEAA) and
(§4) solutions of examined compounds in DMSO were diluted into fresh growth medium and added into the
(§5) microplates at the final concentrations 0.1 μM – 100 μM. The well-known cytostatic compound
(§6) doxorubicin (DX) 1 μM was used as a positive control for both cell lines. Additionally, carbonyl cyanide
(§7) 3-chlorophenylhydrazone (CCCP) 10 μM was used as positive control mitochondrial toxin for hepatocytes.
(§8) Proliferation Assay, Promega) was added to the each well and the cells were incubated under the same
(§9) conditions for 4 h. The absorbance of the samples was measured using a microplate reader (PerkinElmer) at

HepG2 cells = assay: MTS cytotoxicity assay HepG2; format: cell-based; conditions: 72 h incubation, 0.1–100 μM
Procedure: as §1, §2, §3, §4, §5, §6, §7, §8, §9

[2] = Pharmacokinetics after i.p. administration in mice; format: in vivo, CD-1 mice
Procedure: A group of 32 adult male mice (CD-1, 18-21 g) were used in the experiment.
During the habituation period the groups of 4 mice were kept in a plastic cage (252 mm x 167 cm x
140 cm) at a controlled room temperature (22±2°C), humidity (55±10%), full spectrum cold white light
access to standard laboratory pellet and tap water.
administered by an intraperitoneal (i.p.) administration at a dose of 5 mg/kg. Blood samples were collected
administration. The blood and brain samples were collected under general anesthesia induced by i.p.
injections of 50 mg/kg ketamine plus 8 mg/kg xylazine. The blood samples were taken into heparinized
tubes, immediately centrifuged at 3500 rpm for 10 min and plasma was collected. The brain and plasma
samples were immediately frozen at - 80°C for LC/MS/MS analysis.
Pharmacokinetic parameters were calculated by a non-compartmental approach from the average
elimination rate constant (λz) was calculated by linear regression of time versus log concentration. Next, the
area under the mean serum and tissue concentration versus time curve (AUC0→t) was estimated using the
log-linear trapezoidal rule (Eq. 1), where Cn is the concentration of last sampling of each compound.
Area under the first-moment curve (AUMC0→t) was estimated by calculation of the total area under the
first-moment curve using the equation 2, where tn is the time of last sampling.
Mean residence time (MRT) was calculated as:
Total clearance (ClT) was calculated as:
Volume of distribution (Vd) was calculated as:
The quantification of studied compound in plasma and brain samples was done using UPLC Agilent 1100
system (Agilent Technologies, Waldbronn, Germany) coupled to the triple quadrupole mass spectrometer
API 2000 (ABSciex, Framingham, Massachusetts, USA) equipped with electrospray ion source. After
Milford, Massachusetts, USA) analytical column. The mobile phase consisted of ACN with 0.1% formic
acid (A) and water with 0.1% formic acid (B) were delivered in gradient elution started with 90% of eluent
B, increasing during 2 min to 90% of eluent A, maintained to 3 min, and then returned during 5 min to 90% of
eluent B, and maintained 90% of eluent B during 5 min at a flow rate of 300 µL/min. The total time of
analysis was 10 min. Electrospray ionization process was performed in positive ionization and the data
(nebivolol). The ion spray source settings were as follows: spray voltage: 5.5 kV, heater temperature:
400°C, curtain gas: 20 psi, source gas 1: 40 psi, source gas 2: 20 psi.

[3] = test system: MK-801 induced impairment in novel object recognition; assay: Novel object recognition test, reversal of MK-801 induced impairment; parameters: species or system Albino Swiss mice; conditions: mouse, in vivo
Procedure: The experiment was conducted on Albino Swiss mice (see Supporting Information).
trained and tested in a black, plastic, open field (50 × 30 cm, 35 cm high) with the floor divided into 20-cm
The open field was in a dark room illuminated only by a 25 W bulb. On the first day
(adaptation) the animals were allowed to explore the open field for 10 min. On the next day (training, T1) the
animals were administered the tested drugs, placed in the apparatus and allowed to explore two identical
objects (cylindrical objects with walls painted white, 7 cm in diameter, 11 cm high) for the time required to
complete 15 s of exploration of either object. For the retention trial (T2) conducted one h later, one of the
objects presented in T1 was replaced with a novel object (a prism-shaped object with walls painted black,
5 cm wide, 14 cm high). The duration of exploration of each object (i.e., sitting in close proximity to the
objects or sniffing or touching them) during 5 min time was video recorded and measured separately by a
trained observer. All drugs were administered before the training (T1) session.

[4] = Water solubility (statement); format: physicochemical
CYP3A4 = CYP3A4 (Homo sapiens, UniProt P08684); assay: biochemical
Procedure: Drug-drug interactions (DDI) – the influence on CYP3A4 activity
The luminescent CYP3A4 P450-Glo™ assay and protocol were provided by Promega (Madison, WI, USA)
was obtained from Sigma-Aldrich (St. Louis, USA). The enzymatic reactions were performed in white
polystyrene, flat-bottom Nunc™ MicroWell™ 96-Well Microplates (Thermo Scientific, Waltham, MA
USA). The luminescence signal was measured with a microplate reader in luminescence mode (EnSpire,
PerkinElmer, Waltham, MA USA).
The final concentrations of 1e and
to calculate IC50 values.

human serotonin 5-HT1AR = biological target: T4, human serotonin 5-HT1AR (Homo sapiens, UniProt P08908); assay: Radioligand binding, [3H]-8-OH-DPAT displacement
T4 sequence (P08908 1-422): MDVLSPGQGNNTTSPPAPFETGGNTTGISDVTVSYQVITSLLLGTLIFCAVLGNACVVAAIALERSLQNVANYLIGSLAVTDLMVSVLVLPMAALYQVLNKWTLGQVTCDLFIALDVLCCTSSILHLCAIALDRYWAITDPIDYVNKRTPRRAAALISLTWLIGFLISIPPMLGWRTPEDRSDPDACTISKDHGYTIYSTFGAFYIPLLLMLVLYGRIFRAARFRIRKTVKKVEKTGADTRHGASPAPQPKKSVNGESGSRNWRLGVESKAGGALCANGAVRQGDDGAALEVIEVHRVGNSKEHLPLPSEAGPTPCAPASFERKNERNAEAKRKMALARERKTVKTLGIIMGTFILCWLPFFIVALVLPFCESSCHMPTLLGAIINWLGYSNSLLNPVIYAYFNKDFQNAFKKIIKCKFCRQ

[5] = biological target: T5, human serotonin 5-HT2A receptor (Homo sapiens, UniProt P28223); assay: Radioligand binding, [3H]-ketanserin displacement
T5 construct: host or cells: CHO-K1

human serotonin 5-HT6R = human serotonin 5-HT6R (Homo sapiens, UniProt P50406); assay: Radioligand binding, [3H]-LSD displacement
human dopamine D2LR = human dopamine D2LR (Homo sapiens, UniProt P14416); assay: Radioligand binding, [3H]-raclopride displacement
Chain of human dopamine D2LR (P14416 whole entry): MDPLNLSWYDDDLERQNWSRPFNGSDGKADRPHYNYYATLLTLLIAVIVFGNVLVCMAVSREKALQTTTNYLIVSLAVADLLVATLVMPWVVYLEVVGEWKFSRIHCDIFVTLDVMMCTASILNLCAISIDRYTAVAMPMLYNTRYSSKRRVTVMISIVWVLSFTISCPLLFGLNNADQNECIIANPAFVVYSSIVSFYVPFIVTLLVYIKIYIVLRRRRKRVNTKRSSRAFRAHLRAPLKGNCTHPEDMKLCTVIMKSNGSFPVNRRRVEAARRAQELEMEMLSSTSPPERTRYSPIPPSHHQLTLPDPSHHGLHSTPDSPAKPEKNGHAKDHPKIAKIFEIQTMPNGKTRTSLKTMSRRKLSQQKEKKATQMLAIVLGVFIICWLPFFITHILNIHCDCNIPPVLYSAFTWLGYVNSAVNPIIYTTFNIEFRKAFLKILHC

Chain of human serotonin 5-HT6R (P50406 whole entry): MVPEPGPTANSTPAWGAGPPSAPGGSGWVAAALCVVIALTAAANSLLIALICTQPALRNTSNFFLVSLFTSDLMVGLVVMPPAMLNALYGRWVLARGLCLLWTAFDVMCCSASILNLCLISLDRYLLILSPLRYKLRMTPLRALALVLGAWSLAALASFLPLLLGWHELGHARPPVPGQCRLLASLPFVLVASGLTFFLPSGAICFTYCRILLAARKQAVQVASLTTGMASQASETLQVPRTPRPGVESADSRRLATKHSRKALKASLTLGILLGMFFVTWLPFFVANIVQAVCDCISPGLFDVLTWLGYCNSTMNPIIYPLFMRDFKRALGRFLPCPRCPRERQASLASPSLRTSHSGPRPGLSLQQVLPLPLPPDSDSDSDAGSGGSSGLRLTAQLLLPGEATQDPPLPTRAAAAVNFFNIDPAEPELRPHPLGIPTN
T5 sequence (P28223 whole entry): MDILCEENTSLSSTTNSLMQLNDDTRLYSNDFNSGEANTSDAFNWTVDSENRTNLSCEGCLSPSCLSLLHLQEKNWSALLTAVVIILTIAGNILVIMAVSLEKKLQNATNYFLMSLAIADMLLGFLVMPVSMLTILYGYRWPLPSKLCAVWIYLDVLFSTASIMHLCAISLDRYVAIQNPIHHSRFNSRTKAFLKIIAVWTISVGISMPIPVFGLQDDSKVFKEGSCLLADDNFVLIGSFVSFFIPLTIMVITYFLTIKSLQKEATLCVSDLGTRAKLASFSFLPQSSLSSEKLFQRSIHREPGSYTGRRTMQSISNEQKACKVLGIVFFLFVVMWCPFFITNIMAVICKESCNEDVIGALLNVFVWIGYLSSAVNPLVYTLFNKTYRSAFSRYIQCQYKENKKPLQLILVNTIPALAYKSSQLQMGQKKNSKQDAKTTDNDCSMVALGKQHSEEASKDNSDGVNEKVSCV
Chain of human 5-HT7 receptor (P34969 1-432 limits assumed): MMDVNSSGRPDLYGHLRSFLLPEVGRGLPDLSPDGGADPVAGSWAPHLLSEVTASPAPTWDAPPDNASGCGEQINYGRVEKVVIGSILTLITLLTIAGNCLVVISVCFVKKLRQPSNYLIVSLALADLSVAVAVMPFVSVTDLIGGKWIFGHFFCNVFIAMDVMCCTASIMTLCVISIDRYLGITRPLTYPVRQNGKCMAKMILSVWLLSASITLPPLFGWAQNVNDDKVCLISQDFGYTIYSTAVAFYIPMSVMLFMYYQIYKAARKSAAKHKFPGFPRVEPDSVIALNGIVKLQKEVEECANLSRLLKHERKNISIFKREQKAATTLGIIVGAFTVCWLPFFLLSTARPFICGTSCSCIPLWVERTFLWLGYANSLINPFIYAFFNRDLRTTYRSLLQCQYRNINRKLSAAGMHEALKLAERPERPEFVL
Chain of human serotonin 5-HT7bR (P34969 1-432 limits assumed): as above
T2 sequence (P41595 whole entry, species assumed): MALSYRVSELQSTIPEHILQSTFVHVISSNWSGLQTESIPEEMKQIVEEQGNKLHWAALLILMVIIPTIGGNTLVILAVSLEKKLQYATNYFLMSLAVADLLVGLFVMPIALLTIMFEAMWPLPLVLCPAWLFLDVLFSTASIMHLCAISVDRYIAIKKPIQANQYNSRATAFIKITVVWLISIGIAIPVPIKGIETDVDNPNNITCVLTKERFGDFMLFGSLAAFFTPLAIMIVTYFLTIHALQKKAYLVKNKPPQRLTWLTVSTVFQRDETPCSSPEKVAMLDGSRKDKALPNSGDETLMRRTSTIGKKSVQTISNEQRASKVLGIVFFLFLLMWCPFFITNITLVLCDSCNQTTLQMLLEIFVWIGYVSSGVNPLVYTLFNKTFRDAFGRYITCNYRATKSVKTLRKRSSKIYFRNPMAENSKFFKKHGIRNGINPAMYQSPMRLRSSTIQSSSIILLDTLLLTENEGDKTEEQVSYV
T3 sequence (P47898 whole entry, species assumed): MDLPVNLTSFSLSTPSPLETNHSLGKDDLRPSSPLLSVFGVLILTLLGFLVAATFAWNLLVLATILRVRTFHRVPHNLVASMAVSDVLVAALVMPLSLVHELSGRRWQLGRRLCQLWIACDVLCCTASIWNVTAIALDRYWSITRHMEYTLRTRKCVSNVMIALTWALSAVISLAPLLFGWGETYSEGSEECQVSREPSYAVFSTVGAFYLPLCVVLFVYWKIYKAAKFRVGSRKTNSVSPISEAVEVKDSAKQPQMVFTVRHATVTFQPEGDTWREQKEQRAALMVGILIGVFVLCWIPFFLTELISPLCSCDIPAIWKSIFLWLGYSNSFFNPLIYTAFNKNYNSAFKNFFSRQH
T1 sequence (P28222 whole entry, species assumed): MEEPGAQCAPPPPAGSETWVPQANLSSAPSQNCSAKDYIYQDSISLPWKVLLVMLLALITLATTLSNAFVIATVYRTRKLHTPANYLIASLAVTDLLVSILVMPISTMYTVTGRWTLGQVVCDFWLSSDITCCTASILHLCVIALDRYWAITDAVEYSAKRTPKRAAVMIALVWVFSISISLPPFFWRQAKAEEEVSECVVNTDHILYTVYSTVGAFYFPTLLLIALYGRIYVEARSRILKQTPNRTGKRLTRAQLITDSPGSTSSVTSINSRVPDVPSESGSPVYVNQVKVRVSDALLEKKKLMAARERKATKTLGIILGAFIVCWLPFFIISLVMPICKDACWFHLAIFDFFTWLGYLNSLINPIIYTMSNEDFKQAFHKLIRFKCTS
Chain of CYP3A4 (P08684 whole entry): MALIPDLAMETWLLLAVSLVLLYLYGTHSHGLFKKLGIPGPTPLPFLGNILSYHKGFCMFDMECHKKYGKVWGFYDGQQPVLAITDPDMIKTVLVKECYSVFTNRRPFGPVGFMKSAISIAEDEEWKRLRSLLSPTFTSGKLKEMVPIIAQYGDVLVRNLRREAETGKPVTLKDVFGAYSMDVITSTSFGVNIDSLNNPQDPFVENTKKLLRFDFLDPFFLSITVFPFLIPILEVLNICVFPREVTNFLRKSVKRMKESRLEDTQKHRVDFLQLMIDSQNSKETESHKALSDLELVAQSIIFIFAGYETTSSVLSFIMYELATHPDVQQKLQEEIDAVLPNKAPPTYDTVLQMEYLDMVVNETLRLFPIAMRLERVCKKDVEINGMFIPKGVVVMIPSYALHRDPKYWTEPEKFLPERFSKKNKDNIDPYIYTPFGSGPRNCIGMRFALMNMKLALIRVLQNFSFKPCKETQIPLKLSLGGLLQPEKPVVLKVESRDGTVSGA

CCn1cncc1-c1c[nH]c2ccc(I)cc12 [1o, 3-(1-ethyl-1H-imidazol-5-yl)-5-iodo-1H-indole]
selectivity over 5-HT1AR (human serotonin 5-HT7bR): 176 fold
Ki (human serotonin 5-HT7bR; read-out: K i (5-HT7R)): 6 nM
function at the human 5-HT7 receptor (human 5-HT7 receptor): full agonists
EC50 (human 5-HT7 receptor): 19 nM
CLint scaled at 50 μM [1]: 6.3 mL/min/kg
inhibition at 1 µM (5-HT1B): 40%
inhibition at 1 µM (5-HT2B; 10^−6 M (1 µM)): 87%
inhibition at 0.01 µM (5-HT2B; 10^−8 M (10 nM)): 7%
inhibition at 1 µM (5-HT5A): 7%
cell viability in words, HEK-293 (HEK-293 cells): toxic for the cells only in the highest concentration (100 μM)
cell viability in words, HepG2 (HepG2 cells): toxic for the cells only in the highest concentration (100 μM)
blood/plasma ratio compared to LP-44 ([2]; 1o 5 mg/kg i.p. vs LP-44 10 mg/kg i.p.): three-fold higher
brain/plasma ratio compared to LP-211 ([2]; 1o 5 mg/kg i.p. vs LP-211 10 mg/kg i.p.): 9 times
Cmax brain ([2]; i.p. 5 mg/kg): 2723 ng/g
Cmax brain (molar) ([2]; i.p. 5 mg/kg): approx. 8 μM
maximum plasma concentration ([2]; i.p. 5 mg/kg): 749 ng/mL
maximum plasma concentration (molar) ([2]; i.p. 5 mg/kg): ~ 2.2 μM
time in which half of the compound was eliminated from the body ([2]; i.p. 5 mg/kg): ≤ 90 min
t0.5 brain ([2]; i.p. 5 mg/kg, brain): 130 min
last sampling time at which measurable ([2]; i.p. 5 mg/kg, plasma and brain): 6 h
MRT ([2]; male, CD-1, mouse, brain, ip, i.p. 5 mg/kg, read-out: MRT brain (converted)): 60 min
Kp ([2]; male, CD-1, mouse, brain/plasma, ip, i.p. 5 mg/kg, read-out: brain to plasma ratio): 6.34
Tmax ([2]; male, CD-1, mouse, ip, i.p. 5 mg/kg, plasma): 15 min
Vd/F ([2]; male, CD-1, mouse, plasma, ip, i.p. 5 mg/kg): 46.6 L/kg
MRT ([2]; male, CD-1, mouse, plasma, ip, i.p. 5 mg/kg, read-out: MRT plasma (converted)): 27 min
reversal of MK-801 induced disruption in novel object recognition [3]: active; also recorded: dose-dependently reversed MK-801-induced disruption in novel object recognition; also recorded: reversed MK-801 induced novel object recognition impairment
water solubility in words [4]: water soluble
IC50 (CYP3A4): 170 nM

CCn1cncc1-c1c[nH]c2ccc(C)cc12 [1q]
Ki (human serotonin 5-HT7bR; read-out: K i (5-HT7R)): 44 nM
function at the human 5-HT7 receptor (human 5-HT7 receptor): full agonists
EC50 (human 5-HT7 receptor): 45 nM

COc1ccc(-c2c([N+](=O)[O-])ncn2C)cc1 [2a]
binding to 5-HT1AR in words (human serotonin 5-HT1AR): did not bind
Ki (human serotonin 5-HT1AR; Fig. 2, read-out: pKi 5-HT1A (converted)): > 10000 nM
Ki ([5]; Fig. 2, read-out: pKi 5-HT2A (converted)): > 10000 nM
Ki (human serotonin 5-HT6R; Fig. 2, read-out: pKi 5-HT6 (converted)): > 10000 nM
binding to 5-HT7R in words (human serotonin 5-HT7bR): did not bind
Ki (human serotonin 5-HT7bR; Fig. 2, read-out: pKi 5-HT7 (converted)): > 10000 nM
Ki (human dopamine D2LR; Fig. 2, read-out: pKi D2 (converted)): > 10000 nM
melting point: 171 °C

NCCc1c[nH]c2ccc(Cl)cc12 [5-chlorotryptamine, reference compound]
Ki (human serotonin 5-HT1AR): 16 nM
Ki [5]: 317 nM
Ki (human serotonin 5-HT6R): 38 nM
Ki (human serotonin 5-HT7bR): 16 nM
Ki (human dopamine D2LR): 2440 nM

Cc1ccc2[nH]cc(CCN)c2c1 [5-methyltryptamine, reference compound]
Ki (human serotonin 5-HT1AR): 39 nM
Ki [5]: 2280 nM
Ki (human serotonin 5-HT6R): 327 nM
Ki (human serotonin 5-HT7bR): 26 nM
Ki (human dopamine D2LR): > 10000 nM

Source: PMC5431432, “Low-basicity 5-HT7 Receptor Agonists Synthesized Using the van Leusen Multicomponent Protocol” (Scientific Reports, 2017)
